PubChem BioAssay (NCI)
Several values for one entry are separate records, joined by “and”; a condition that tells them apart may be missing. Equal values may be shown once.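 How tested: cells in 96-well plates exposed to compound for 48 hours at five concentrations. GI50 = concentration required for 50% inhibition of growth. TGI: concentration producing complete growth inhibition.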

Legend:
Assay in all cases: NCI tumour cell line growth inhibition, 48 h
SW-620 colon = system: SW-620 colon
SN12C renal = system: SN12C renal
KM20L2 colon = system: KM20L2 colon
NCI-H460 lung = system: NCI-H460 lung
K-562 leukemia = system: K-562 leukemia
SK-MEL-5 melanoma = system: SK-MEL-5 melanoma
SNB-19 CNS = system: SNB-19 CNS
SK-MEL-28 melanoma = system: SK-MEL-28 melanoma
DMS 273 small cell lung = system: DMS 273 small cell lung
DU-145 prostate = system: DU-145 prostate

SMILES	TGI (SW-620 colon)	TGI (SN12C renal)	TGI (KM20L2 colon) [µM]	TGI (NCI-H460 lung)	TGI (K-562 leukemia) [µM]	TGI (SK-MEL-5 melanoma)	TGI (SNB-19 CNS)	TGI (SK-MEL-28 melanoma)	TGI (DMS 273 small cell lung) [µM]	GI50 (SW-620 colon)	GI50 (SN12C renal)	GI50 (SK-MEL-28 melanoma)	GI50 (KM20L2 colon) [µM]	GI50 (NCI-H460 lung)	GI50 (DMS 273 small cell lung) [µM]	GI50 (K-562 leukemia) [µM]	GI50 (SK-MEL-5 melanoma)	GI50 (SNB-19 CNS)	GI50 (DU-145 prostate)	TGI (DU-145 prostate)
CCOC(=O)CC(=O)ON(C)C(C)=O	> 100 µM	> 100 µM	> 100	> 100 µM	> 100	> 100 µM	> 100 µM													
c1ccc(COc2cccc3ccc[n+](Cc4ccccc4)c23)cc1	> 100 µM		93.8	35.7 µM	> 100		> 100 µM	25.4 µM	17.7											
CCN1c2ccccc2C(C(SC)S(=O)(=O)c2ccc(C)cc2)c2c1[nH]c(=O)n(C)c2=O (centres undefined)	> 100 µM	> 100 µM			> 100	> 100 µM	> 100 µM	> 100 µM	> 100											
CC(C)OP(=O)(OC(C)C)C(=NCCN=C(NNc1ccc([N+](=O)[O-])cc1)P(=O)(OC(C)C)OC(C)C)NNc1ccc([N+](=O)[O-])cc1	> 100 µM	> 100 µM	> 100	> 100 µM	> 100	> 100 µM	> 100 µM	> 100 µM	> 100											
C[Si](C)(C)C1(Sc2ccccc2)SCCCS1	> 100 µM	> 100 µM		> 100 µM	> 100	> 100 µM	> 100 µM	> 100 µM	> 100											
COC(OC)C(C)CC(=O)N(C)C (centres undefined)	> 100 µM	> 100 µM	> 100	> 100 µM	> 100	> 100 µM	> 100 µM	> 100 µM	> 100											
CN(C)c1nc(=Nc2ccc(N=c3nc(N(C)C)ss3)cc2)ss1	> 65.9 µM	> 92.3 µM	> 100	> 100 µM	30.5	> 61.2 µM	> 100 µM	33.6 µM	> 64											
[Cl-].[La+3].[O-]/N=C(\c1ccccc1)c1ccccn1.[O-]/N=C(\c1ccccc1)c1ccccn1.[O-]/N=C(\c1ccccc1)c1ccccn1	> 100 µM	> 100 µM	> 100	> 69.2 µM	> 100	> 76.4 µM	> 100 µM	> 100 µM	> 100	53.9 µM	23.5 µM	38.5 µM	46.2	15 µM	31.3	84.2	28.6 µM	50.5 µM		
COc1ccc(S(=O)(=O)NNS(C)(=O)=O)cc1	> 100 µM	> 100 µM	> 100		> 100	> 100 µM	> 100 µM		> 100											
CCCCCCN(CCCCCC)C(=O)Cc1c2n(c3ccccc13)Cc1ccccc1-2	> 100 µM	> 100 µM	> 100	> 100 µM	> 100	> 100 µM	> 100 µM	> 100 µM	> 100											
O=C(/C=C\c1ccc(Cl)c(Cl)c1)c1ccc(Cl)cc1Cl	8.47 µM and 18.9 µM	> 100 µM	28	54.8 µM	26	30.8 µM	56.2 µM		34.8							1.61				
COc1cc(/C=C/c2cc(O)c(C(C)=O)c(O)c2)cc2c1O[C@]1(C)CC[C@@H](O)C(C)(C)[C@H]1C2	> 100 µM	72.8 µM		57.5 µM	> 100	22.3 µM	> 100 µM	26.2 µM		5.52 µM	9.07 µM	4.17 µM		6.26 µM		3.64	7.12 µM	7.46 µM	16.6 µM	> 100 µM
NC1(C(=O)OCc2ccccc2)CCCC1	> 100 µM	54 µM		> 100 µM	59.6	37.4 µM	61.1 µM	48.7 µM												37.5 µM
COc1ccc(/C=C(/C#N)n2nnc3cccc(F)c32)cc1	> 100 µM	> 100 µM		4.62 µM	> 100	5.46 µM	82.1 µM	> 100 µM		0.399 µM	1.93 µM	1.92 µM		0.703 µM		0.352	0.877 µM	2.38 µM	1.36 µM	4.67 µM
C=C1C(=O)O[C@H]2[C@H]1CC/C(COC(=O)c1c[nH]c3ccccc13)=C\CC[C@@]1(C)O[C@@H]21	0.752 µM	0.623 µM		3.18 µM	1.62	0.499 µM	2.91 µM	1.41 µM		0.234 µM	0.237 µM	0.367 µM		1.1 µM		0.279	0.204 µM	1.3 µM	0.383 µM	1.4 µM
COc1cc(OC)cc(-c2cc(=O)c3c(OC)c(OC)c(OC)c(OC)c3o2)c1	> 100 µM	> 100 µM		> 100 µM	> 100	84 µM	> 100 µM	> 100 µM												> 100 µM
CCc1cc(Cc2cc(CC)c(NC(=O)C(=O)Cc3ccccn3)c(CC)c2Cl)c(Cl)c(CC)c1NC(=O)C(=O)Cc1ccccn1	31.9 µM	> 100 µM	> 100	> 100 µM	> 100	> 100 µM	> 100 µM	> 100 µM	> 100											
CC(=O)/C(=C\c1cccc([N+](=O)[O-])c1)C(=O)Nc1ccccc1C	> 100 µM	> 100 µM	> 100	> 100 µM	> 100	> 100 µM	> 100 µM	> 100 µM												
COc1cccc(-c2nc(-c3ccc(NC(=O)C(C)C)cc3)[nH]c2-c2ccnc(Br)c2)c1	> 100 µM	> 100 µM		21.3 µM	> 100	3.32 µM	> 100 µM	> 100 µM		3.52 µM	3.31 µM	2.78 µM		3.2 µM		3.07	1.8 µM	3.76 µM	3.86 µM	> 100 µM
O=C1c2cc3c(cc2-c2c1c1ccc(F)cc1c(=O)n2CCCNCCO)OCO3	1 µM	0.861 µM		0.204 µM	1.36	0.232 µM	1.16 µM	1.77 µM		0.0218 µM	0.108 µM	0.329 µM		0.0219 µM		0.0373	0.109 µM	0.0431 µM	0.0329 µM	1.09 µM

SMILES	TGI (SW-620 colon)	TGI (SN12C renal)	TGI (KM20L2 colon) [µM]	TGI (NCI-H460 lung)	TGI (K-562 leukemia) [µM]	TGI (SK-MEL-5 melanoma)	TGI (SNB-19 CNS)	TGI (SK-MEL-28 melanoma)	TGI (DMS 273 small cell lung) [µM]	GI50 (SW-620 colon)	GI50 (SN12C renal)	GI50 (SK-MEL-28 melanoma)	GI50 (KM20L2 colon) [µM]	GI50 (NCI-H460 lung)	GI50 (DMS 273 small cell lung) [µM]	GI50 (K-562 leukemia) [µM]	GI50 (SK-MEL-5 melanoma)	GI50 (SNB-19 CNS)	GI50 (DU-145 prostate)	TGI (DU-145 prostate)
CCOC(=O)C(=C=C=C(c1ccccc1)c1ccccc1)C(=O)OCC	51.2 µM	42.4 µM	45.2	46.5 µM	28.5		55.4 µM	36.8 µM	45.5											
COc1ccc(-c2nnc(COc3ccc(NC(=O)Nc4cc(C(F)(F)F)cc(C(F)(F)F)c4)cc3F)o2)cc1	5.72 µM	5.39 µM		4.38 µM	13.5	3.84 µM	15.7 µM	6.85 µM		2.19 µM	1.93 µM	2.4 µM		1.66 µM		2.66	1.73 µM	3.33 µM	2.15 µM	4.84 µM
O=S1(=O)OCCOS(=O)(=O)C1Br	> 100 µM	> 100 µM			> 100	> 100 µM	> 100 µM	> 100 µM	> 100											
C/C(=N\NC(=S)NC(CCC(=O)O)C(=O)O)c1ccccn1 (centres undefined)	> 100 µM	> 100 µM	> 100	> 100 µM	> 100	> 100 µM	> 100 µM	> 100 µM												
Cc1ccccc1S(=O)(=O)OC1NS(=O)(=O)c2ccccc21 (centres undefined)	> 100 µM	> 100 µM		> 100 µM	> 100	> 100 µM	> 100 µM	> 100 µM												> 100 µM
CC(C)=Cc1cc(C(=O)Nc2ccc(Cl)c(Cl)c2)nc(N)n1	> 100 µM	> 100 µM	> 100	> 100 µM	> 100	> 100 µM	> 100 µM	> 100 µM	> 100											
COc1ccc([C@H]2[C@@H](F)C(=O)N2c2cc(OC)c(OC)c(OC)c2)cc1F	> 100 µM	> 100 µM		91.1 µM	> 100	0.35 µM	> 100 µM	> 100 µM		0.0562 µM	0.482 µM	15.8 µM		0.356 µM		0.0383	0.0456 µM	0.302 µM	0.269 µM	> 100 µM
O=C(CCc1nnc2sc(-c3ccc(Cl)cc3Cl)nn12)c1nc2ncccc2[nH]1	3.68 µM	4.92 µM		3.64 µM	> 100	3.09 µM	16.7 µM	5.65 µM		1.56 µM	1.99 µM	2.44 µM		1.89 µM		2.44	1.7 µM	3.53 µM	1.92 µM	3.63 µM
COc1ccc(-c2nnc(COc3ccc(C(=O)/C=C/c4ccco4)cc3)o2)cc1	4.11 µM	11.5 µM		14 µM	7.45	11.1 µM	18.2 µM	5.41 µM		1.91 µM	3.17 µM	2.33 µM		3.66 µM		2.77	3.16 µM	5.56 µM	2.33 µM	5.72 µM
N#CC(C#N)=CNC(N)=S	> 100 µM	> 100 µM		> 100 µM	> 100	> 100 µM	> 100 µM	> 100 µM												> 100 µM
CC(=O)OC1COC(n2ccc3cc(Br)c([N+](=O)[O-])cc32)C(OC(C)=O)C1OC(C)=O (centres undefined)	> 100 µM	> 100 µM	> 100	69.5 µM	> 100		> 100 µM	> 100 µM	> 100											
CC[C@H](Nc1ncnc2nc[nH]c12)c1oc2ccccc2c(=O)c1-c1cccc(F)c1	> 100 µM	> 100 µM		58.8 µM	> 100	28.2 µM	> 100 µM	> 100 µM		32.5 µM	19.7 µM	22.6 µM		18.8 µM		17.4	14 µM	30.5 µM	26.9 µM	> 100 µM
Cn1c2ccccc2c2cc(-c3ccccc3)c3c(c21)C(=O)c1ccccc1C3=O	66.5 µM	> 100 µM			73.1		> 100 µM	37.5 µM	44.9											
CC(=O)OC1=CC(n2cc(F)c(=O)[nH]c2=O)OC(C)C1=O (centres undefined)	> 100 µM	> 100 µM		> 100 µM	> 100	> 100 µM	> 100 µM	> 100 µM	> 100											> 100 µM
Cc1cc(I)cc(CN(C)CCCN2CCCCC2)c1O	27.7 µM	> 100 µM		26.2 µM	23.1	20.7 µM	40.2 µM	31.7 µM		14.6 µM	49.9 µM	15.9 µM		12.5 µM		11.1	8.5 µM	17.4 µM	16.7 µM	33.8 µM
CN(C)c1ccc(/C=C(\NC(=O)c2ccccc2)c2nc3ncncc3[nH]2)cc1	> 100 µM	> 100 µM	> 100		> 100	> 100 µM	> 100 µM	> 100 µM												
CN(C)CCSC1=Nc2ccc(Cl)cc2C(c2ccccc2Cl)=NC1	34 µM and > 100 µM	26.5 µM and > 100 µM		30.7 µM and > 100 µM	> 100	28.7 µM and > 100 µM	31.1 µM and > 100 µM	34.1 µM and > 100 µM		16.6 µM and 33.5 µM	13.5 µM and > 100 µM	19.4 µM and > 100 µM		14.9 µM and 68.1 µM			15 µM and 43.3 µM	17.1 µM and > 100 µM	14.4 µM and 60.2 µM	30.5 µM and > 100 µM
CN1CCN(CCCn2c(=O)c3sc4ncccc4c3n3nnc(-c4ccccc4)c23)CC1	11.5 µM	14.2 µM		13.7 µM	2.05	13.8 µM	15.8 µM	15.8 µM		5.34 µM	7.2 µM	8.73 µM		6.88 µM		0.881	7.21 µM	8.41 µM	5.85 µM	12.2 µM
Clc1ccc(C(c2ccc(Cl)cc2)c2ccccn2)cc1	44 µM	31.7 µM	29.8	34.2 µM	55.6	33 µM	51.5 µM													
